According to PubChem BioAssay AID1963828 (Molecular Pharmacology Branch, DTP, NCI, 2024):

Tested on: 991263-137-R1-J2-PDC complex spheroid viability
Assay: Anticancer human tumor 991263-137-R1-J2-PDC patient-derived colon adenocarcinoma cell line growth inhibition [POLQ]
Conditions: for IC50: curve of first compound; for viability, T/C: stronger effect = lower value
How it was run: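 Patient-derived tumour cells were co-cultured with HUVEC and mesenchymal stem cells as multicellular spheroids at 37 °C. They were treated with POLQ inhibitors (novobiocin, ART-558, RP6685) alone or combined with other agents. Top concentrations were at or near clinical Cmax (otherwise 10 microM; SN-38 at 1 microM), decreasing in half-log steps.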

[1] = second compound 0.0316 µM, first compound 0.00316 µM
[2] = second compound 0.0316 µM, first compound 0.01 µM
[3] = second compound 0.0316 µM, first compound 0.0316 µM
[4] = second compound 0.0316 µM, first compound 0.1 µM
[5] = second compound 0.0316 µM, first compound 0.316 µM
[6] = second compound 0.0316 µM, first compound 1 µM
[7] = second compound 0.1 µM, first compound 0.00316 µM
[8] = second compound 0.1 µM, first compound 0.01 µM
[9] = second compound 0.1 µM, first compound 0.0316 µM
[10] = second compound 0.1 µM, first compound 0.1 µM
[11] = second compound 0.1 µM, first compound 0.316 µM
[12] = second compound 0.1 µM, first compound 1 µM
[13] = second compound 0.316 µM, first compound 0.00316 µM
[14] = second compound 0.316 µM, first compound 0.01 µM
[15] = second compound 0.316 µM, first compound 0.0316 µM
[16] = second compound 0.316 µM, first compound 0.1 µM
[17] = second compound 0.316 µM, first compound 0.316 µM
[18] = second compound 0.316 µM, first compound 1 µM
[19] = second compound 1 µM, first compound 0.00316 µM
[20] = second compound 1 µM, first compound 0.01 µM
[21] = second compound 1 µM, first compound 0.0316 µM
[22] = second compound 1 µM, first compound 0.1 µM
[23] = second compound 1 µM, first compound 0.316 µM
[24] = second compound 1 µM, first compound 1 µM
[25] = second compound 3.16 µM, first compound 0.00316 µM
[26] = second compound 3.16 µM, first compound 0.01 µM
[27] = second compound 3.16 µM, first compound 0.0316 µM
[28] = second compound 3.16 µM, first compound 0.1 µM
[29] = second compound 3.16 µM, first compound 0.316 µM
[30] = second compound 3.16 µM, first compound 1 µM
[31] = second compound 10 µM, first compound 0.00316 µM
[32] = second compound 10 µM, first compound 0.01 µM
[33] = second compound 10 µM, first compound 0.0316 µM
[34] = second compound 10 µM, first compound 0.1 µM
[35] = second compound 10 µM, first compound 0.316 µM
[36] = second compound 10 µM, first compound 1 µM
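Also: spheroids exposed to compounds for 7 days before readout.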
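For viability, T/C in this document: 100% = DMSO vehicle control viability.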

In the case of `C=CCn1c(=O)c2cnc(Nc3ccc(N4CCN(C)CC4)cc3)nc2n1-c1cccc(C(C)(C)O)n1` + Cc1cccc(N(C)C(=O)C2C(O)CCN2c2nc(C)cc(C(F)(F)F)c2C#N)c1, the IC50 (second compound 0.0316 µM) is reported as greater than 1000 nM, the IC50 (second compound 0.1 µM) is reported as greater than 1000 nM and the IC50 (second compound 0.316 µM) is reported as greater than 1000 nM. The IC50 (second compound 1 µM) was greater than 1000 nM, the IC50 (second compound 3.16 µM) was greater than 1000 nM and the IC50 (second compound 10 µM) was greater than 1000 nM. The viability, T/C [1] was 103%, the viability, T/C [2] was 114% and the viability, T/C [3] was 103%. It also gave a viability, T/C [4] of 115%, a viability, T/C [5] of 101% and a viability, T/C [6] of 93%. For the same compound, the viability, T/C [7] was 108%, the viability, T/C [8] was 110% and the viability, T/C [9] was 107%. The viability, T/C [10] was 102%, the viability, T/C [11] was 108% and the viability, T/C [12] was 90.1%. For the same compound, the viability, T/C [13] was 115%, the viability, T/C [14] was 103% and the viability, T/C [15] was 98.1%. It also gave a viability, T/C [16] of 119%, a viability, T/C [17] of 108% and a viability, T/C [18] of 102%. The viability, T/C [19] was 99.1%, the viability, T/C [20] was 101% and the viability, T/C [21] was 96%. It also gave a viability, T/C [22] of 97.6%, a viability, T/C [23] of 110% and a viability, T/C [24] of 94.2%. It also gave a viability, T/C [25] of 100%, a viability, T/C [26] of 101% and a viability, T/C [27] of 98.4%. For the same compound, the viability, T/C [28] was 101%, the viability, T/C [29] was 103% and the viability, T/C [30] was 98.3%. It also gave a viability, T/C [31] of 98.8%, a viability, T/C [32] of 110% and a viability, T/C [33] of 99.5%. For the same compound, the viability, T/C [34] was 106%, the viability, T/C [35] was 105% and the viability, T/C [36] was 95.2%.
In the case of `CC[C@@]1(O)C(=O)OCc2c1cc1n(c2=O)Cc2cc3c(CN(C)C)c(O)ccc3nc2-1` + Cc1cccc(N(C)C(=O)C2C(O)CCN2c2nc(C)cc(C(F)(F)F)c2C#N)c1, the IC50 (second compound 0.0316 µM) is reported as greater than 100 nM, the IC50 (second compound 0.1 µM) is reported as greater than 100 nM and the IC50 (second compound 0.316 µM) is reported as greater than 100 nM. The IC50 (second compound 1 µM) was greater than 100 nM, the IC50 (second compound 3.16 µM) was greater than 100 nM and the IC50 (second compound 10 µM) was greater than 100 nM. For the same compound, the viability, T/C (second compound 0.0316 µM, first compound 0.000316 µM) was 111%, the viability, T/C (second compound 0.0316 µM, first compound 0.001 µM) was 115% and the viability, T/C [1] was 111%. It also gave a viability, T/C [2] of 106%, a viability, T/C [3] of 114% and a viability, T/C [4] of 97.3%. The viability, T/C (second compound 0.1 µM, first compound 0.000316 µM) was 112%, the viability, T/C (second compound 0.1 µM, first compound 0.001 µM) was 111% and the viability, T/C [7] was 94%. It also gave a viability, T/C [8] of 118%, a viability, T/C [9] of 105% and a viability, T/C [10] of 92.8%. The viability, T/C (second compound 0.316 µM, first compound 0.000316 µM) was 117%, the viability, T/C (second compound 0.316 µM, first compound 0.001 µM) was 130% and the viability, T/C [13] was 101%. The viability, T/C [14] was 95.9%, the viability, T/C [15] was 101% and the viability, T/C [16] was 91.4%. The viability, T/C (second compound 1 µM, first compound 0.000316 µM) was 111%, the viability, T/C (second compound 1 µM, first compound 0.001 µM) was 114% and the viability, T/C [19] was 109%. It also gave a viability, T/C [20] of 118%, a viability, T/C [21] of 110% and a viability, T/C [22] of 81.5%. It also gave a viability, T/C (second compound 3.16 µM, first compound 0.000316 µM) of 101%, a viability, T/C (second compound 3.16 µM, first compound 0.001 µM) of 98.3% and a viability, T/C [25] of 98.2%. For the same compound, the viability, T/C [26] was 86.6%, the viability, T/C [27] was 96.2% and the viability, T/C [28] was 91.3%. It also gave a viability, T/C (second compound 10 µM, first compound 0.000316 µM) of 117%, a viability, T/C (second compound 10 µM, first compound 0.001 µM) of 120% and a viability, T/C [31] of 108%. For the same compound, the viability, T/C [32] was 97.5%, the viability, T/C [33] was 90.8% and the viability, T/C [34] was 77%.
Compound `CCc1c2c(nc3ccc(O)cc13)-c1cc3c(c(=O)n1C2)COC(=O)[C@]3(O)CC` + Cc1cccc(N(C)C(=O)C2C(O)CCN2c2nc(C)cc(C(F)(F)F)c2C#N)c1 has an IC50 (second compound 0.0316 µM) of 67 nM, an IC50 (second compound 0.1 µM) of 100 nM and an IC50 (second compound 0.316 µM) of 175 nM. The IC50 (second compound 1 µM) was 72.3 nM, the IC50 (second compound 3.16 µM) was 105 nM and the IC50 (second compound 10 µM) was 153 nM. It also gave a viability, T/C [1] of 103%, a viability, T/C [2] of 91.3% and a viability, T/C [3] of 48.6%. For the same compound, the viability, T/C [4] was 53.7%, the viability, T/C [5] was 36.3% and the viability, T/C [6] was 27.8%. It also gave a viability, T/C [7] of 96.7%, a viability, T/C [8] of 119% and a viability, T/C [9] of 67.2%. The viability, T/C [10] was 57.1%, the viability, T/C [11] was 36.1% and the viability, T/C [12] was 28.4%. The viability, T/C [13] was 97.6%, the viability, T/C [14] was 96% and the viability, T/C [15] was 73.4%. The viability, T/C [16] was 60.1%, the viability, T/C [17] was 41% and the viability, T/C [18] was 33.6%. It also gave a viability, T/C [19] of 111%, a viability, T/C [20] of 111% and a viability, T/C [21] of 64.3%. It also gave a viability, T/C [22] of 50.6%, a viability, T/C [23] of 48.7% and a viability, T/C [24] of 32.5%. It also gave a viability, T/C [25] of 109%, a viability, T/C [26] of 92.5% and a viability, T/C [27] of 70.4%. It also gave a viability, T/C [28] of 53.5%, a viability, T/C [29] of 33.9% and a viability, T/C [30] of 36.6%. For the same compound, the viability, T/C [31] was 108%, the viability, T/C [32] was 81.5% and the viability, T/C [33] was 67.9%. For the same compound, the viability, T/C [34] was 53.2%, the viability, T/C [35] was 46.2% and the viability, T/C [36] was 24.5%.
In the case of `O=C(c1cc(Cc2n[nH]c(=O)c3ccccc23)ccc1F)N1CCN(C(=O)C2CC2)CC1` + Cc1cccc(N(C)C(=O)C2C(O)CCN2c2nc(C)cc(C(F)(F)F)c2C#N)c1, the IC50 (second compound 0.0316 µM) is reported as greater than 10000 nM, the IC50 (second compound 0.1 µM) is reported as greater than 10000 nM and the IC50 (second compound 0.316 µM) is reported as greater than 10000 nM. The IC50 (second compound 1 µM) was greater than 10000 nM, the IC50 (second compound 3.16 µM) was greater than 10000 nM and the IC50 (second compound 10 µM) was greater than 10000 nM. It also gave a viability, T/C [3] of 105%, a viability, T/C [4] of 99.1% and a viability, T/C [5] of 92.4%. The viability, T/C [6] was 105%, the viability, T/C (second compound 0.0316 µM, first compound 3.16 µM) was 79.5% and the viability, T/C (second compound 0.0316 µM, first compound 10 µM) was 79.3%. The viability, T/C [9] was 101%, the viability, T/C [10] was 104% and the viability, T/C [11] was 93.2%. For the same compound, the viability, T/C [12] was 84.4%, the viability, T/C (second compound 0.1 µM, first compound 3.16 µM) was 87.1% and the viability, T/C (second compound 0.1 µM, first compound 10 µM) was 99%. For the same compound, the viability, T/C [15] was 92.5%, the viability, T/C [16] was 118% and the viability, T/C [17] was 96%. The viability, T/C [18] was 99.3%, the viability, T/C (second compound 0.316 µM, first compound 3.16 µM) was 90% and the viability, T/C (second compound 0.316 µM, first compound 10 µM) was 72%. It also gave a viability, T/C [21] of 90.2%, a viability, T/C [22] of 91.3% and a viability, T/C [23] of 91.5%. The viability, T/C [24] was 111%, the viability, T/C (second compound 1 µM, first compound 3.16 µM) was 107% and the viability, T/C (second compound 1 µM, first compound 10 µM) was 91.4%. The viability, T/C [27] was 80.8%, the viability, T/C [28] was 95.3% and the viability, T/C [29] was 92.8%. The viability, T/C [30] was 80.4%, the viability, T/C (second compound 3.16 µM, first compound 3.16 µM) was 108% and the viability, T/C (second compound 3.16 µM, first compound 10 µM) was 95.8%. It also gave a viability, T/C [33] of 96.5%, a viability, T/C [34] of 101% and a viability, T/C [35] of 86.1%. For the same compound, the viability, T/C [36] was 100%, the viability, T/C (second compound 10 µM, first compound 3.16 µM) was 106% and the viability, T/C (second compound 10 µM, first compound 10 µM) was 90.4%.
